From paper PMC11294390 (Analytical and Bioanalytical Chemistry, 2024)
Like-named read-outs stand apart in the source and are kept apart here.

Experiments:
[1] = target: human serum albumin (HSA) (Homo sapiens, UniProt P02768); conditions: for k (retention factor): Chiralpak HSA column, racemates
HSA Sudlow site I = target: T1, HSA Sudlow site I (Homo sapiens, UniProt P02768); assay: Displacement chromatography (zonal elution) with warfarin as competitor; type: binding; conditions: k decreases with rising warfarin, P < 0.05; 1/k vs competitor linear, positive slope
T1 construct: purchased Chiral Technologies Europe (Daicel Chemical Industries, Ltd., Osaka, Japan)

HSA [2] = conditions: cited from earlier work
human plasma proteins = conditions: racemate incubated with plasma, ultrafiltration; cited from earlier work
bovine serum albumin = conditions: spectroscopic technology; cited from earlier work
HSA [3] = tested on: HSA; set-up: method as in PMID 24666938; conditions: HPAC, immobilized HSA column; cited from earlier work
HSA [4] = conditions: value in brackets; cited from earlier work
[5] = tested on: differentiated SH-SY5Y cells; conditions: cited from earlier work
HSA [6] = conditions: equilibrium and dynamic dialysis; cited from earlier work
HSA [7] = conditions: literature-reported; cited from earlier work
[8] = 100% potassium phosphate buffer 67 mM pH 7.0, 25 °C
[9] = from k by Eq. 4, 100% potassium phosphate buffer 67 mM pH 7.0, 25 °C

T1 sequence (P02768 25-609): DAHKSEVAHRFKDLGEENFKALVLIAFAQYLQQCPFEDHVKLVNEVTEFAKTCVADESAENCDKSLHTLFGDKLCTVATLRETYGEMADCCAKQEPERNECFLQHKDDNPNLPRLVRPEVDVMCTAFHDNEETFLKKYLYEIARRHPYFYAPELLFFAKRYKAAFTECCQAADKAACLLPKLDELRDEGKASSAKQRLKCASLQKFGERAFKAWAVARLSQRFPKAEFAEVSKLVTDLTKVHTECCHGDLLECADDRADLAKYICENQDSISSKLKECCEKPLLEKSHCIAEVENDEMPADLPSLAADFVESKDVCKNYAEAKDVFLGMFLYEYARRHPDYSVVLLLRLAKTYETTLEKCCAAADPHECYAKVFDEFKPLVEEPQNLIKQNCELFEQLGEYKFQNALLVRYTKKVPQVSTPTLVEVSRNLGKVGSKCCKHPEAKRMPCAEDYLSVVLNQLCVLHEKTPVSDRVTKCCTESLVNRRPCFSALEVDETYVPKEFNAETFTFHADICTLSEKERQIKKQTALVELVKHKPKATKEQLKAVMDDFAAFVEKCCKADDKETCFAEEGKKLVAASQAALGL
human serum albumin (HSA), sequence (P02768 25-609): as above

CC(CN1c2ccccc2[S+]([O-])c2ccccc21)N(C)C (stereo not shown) [PMZSO, promethazine sulphoxide]
k (retention factor) [1, 8]: 3.99 | Bound fraction (%b) to HSA ([1]; human, 50 µg/mL, pH 7): 80% | Competition with warfarin (site I) (HSA Sudlow site I): also compete with warfarin and (S)-ibuprofen

CC(CN1c2ccccc2Sc2ccccc21)N(C)C (stereo not shown) [PMZ, promethazine]
Association constant of binding to HSA (HSA [2]; fluorescence and adsorption spectroscopy): 1.57 ± 0.20 × 10^4 M^−1 | Binding site on HSA (HSA [2]; fluorescence spectroscopy): located in site I (subdomain IIA) | Bound fraction (%b) to HSA [1, 9]: 98% | Competition with warfarin (site I) (HSA Sudlow site I): competes with warfarin | Enantioselective binding to human plasma proteins (human plasma proteins): evidence of the enantioselective binding | Binding constant to bovine serum albumin (bovine serum albumin): 1.40 ± 0.04 × 10^4 M^−1 | Association constant of binding to HSA (HSA [3]): 1.24 ± 0.14 × 10^4 M^−1

Cc1ncc([N+](=O)[O-])n1CCO [Metronidazole, metronidazole]
Bound fraction (%b) to HSA, experimental, controls ([1]; human, pH 7): 19.8% | Bound fraction (%b) to HSA, literature value (HSA [4]): 20.0%

CN(C)CCCN1c2ccccc2Sc2ccc(Cl)cc21 [Chlorpromazine, chlorpromazine]
Bound fraction (%b) to HSA, experimental, controls ([1]; human, pH 7): 98.1% | Bound fraction (%b) to HSA, literature value (HSA [4]): > 90%

CNC(C)CN1c2ccccc2Sc2ccccc21 (stereo not shown) [DMPMZ, N-desmonomethyl promethazine]
Cytotoxicity [5]: even more cytotoxic than PMZ | k (retention factor) [1, 8]: 16.34 | Competition with warfarin (site I) (HSA Sudlow site I): also compete with warfarin and (S)-ibuprofen

COc1ccc2c3c1O[C@H]1[C@@H](O)C=C[C@H]4[C@@H](C2)N(C)CC[C@@]341 [COD, codeine]
k (retention factor) [1, 8]: 1.89 | Bound fraction (%b) to HSA [1, 9]: 65% | Competition with warfarin (site I) (HSA Sudlow site I): competition was also observed for both sites I and II | Binding percentage to HSA (HSA [6]): about 29%

CC(=O)CC(c1ccccc1)c1c(O)c2ccccc2oc1=O (stereo not shown) [Warfarin, warfarin]
Affinity constant for HSA (HSA [7]): 330000 M⁻¹
